In patent US20250296937A1, “CYCLIC BISBENZYL TETRAHYDROISOQUINOLINE COMPOUND, AND PREPARATION METHOD THEREFOR AND USE THEREOF” (Shanghai Institute of Materia Medica, Chinesse Academy of …, priority 2021, published 2025):
Entries after “also recorded” stand apart in the source; their conditions may differ.

Tests used:
[1] = system: Raw 264.7 cells; test: Cell viability in LPS-induced inflammation model of Raw 264.7 cells (CCK-8); format: cell-based; conditions: 1 μg/ml LPS, 1 μM compound, 16 hours
Method: (§1) In this example, the effect of the compounds of the present invention on the inflammation level of the LPS-induced inflammation model of Raw 264.7 cells was analyzed by cell viability in combination with inflammatory factors; cell viability was analyzed by CCK-8 assay; and mRNA expression levels of inflammation-related indicators were detected by a real-time quantitative PCR (Q-PCR) method. Raw 264.7 cells were purchased from ATCC; CCK-8 kit was purchased from Meilunbio, item no. MA0218-3; LPS was purchased from Sigma, item no. L2630.
(§2) Experimental methods: first, 8000 cells/well Raw 264.7 cells were placed in 96-well plates and incubated overnight. On the second day, 0.1% DMSO was added to the control cells, 1 μg/ml LPS as well as 0.1% DMSO was added to the model group, 1 μg/ml LPS as well as 1 μM of the compounds (oxyacanthine hydrochloride (oxy), 1, 2, tetrandrine (tet), 3, 4, 6, 58) was added to the treatment group, and the 96-well plates were sterilized and incubated in a constant temperature incubator for 16 hours. Finally, the viability of the cells was detected using the CCK-8 kit.

[2] = system: carbon tetrachloride-induced acute liver fibrosis; test: Carbon tetrachloride-induced acute liver fibrosis in mice; format: in vivo, C57BL/6 mice; conditions: for liver fibrosis indicators (Collagen1, α-SMA) by WB assay: 30 mg/kg orally once a day for 6 days, CCl4 0.6 ml/kg i.p. D1, D3, D5; for effect on CCl4-induced acute liver fibrosis in mice: oral administration, 30 mg/kg
Method: In this example, the effect of the compounds of the present invention on the carbon tetrachloride-induced acute liver fibrosis model was analyzed by tissue observation, fibrosis indicators, HE and Sirius red staining; the injury of mice was determined by body weight testing and tissue bright-field photographing; the protein expression levels of fibrosis-related indicators were detected by WesternBlot assay; and the fibrosis progression was analyzed by HE and Sirius red staining. C57BL/6 mice were purchased from SLAC; CCl4 was purchased from Sinopharm Chemical Reagent Co, Ltd, item no. 10006464; olive oil was purchased from Sinopharm, item no. 69018028; primary antibody: Collagen was purchased from ARG21965, item no. arigobio; α-smooth muscle actin was purchased from CST, item no. mAb #19245; VIMENTN was purchased from CST, item no. mAb #5741; GAPDH was purchased from Yeasen, item no. mAb #30201ES20.
Solution preparation: CCl4 was diluted with olive oil (1:9, vol:vol) and the compounds were configured with 85% saline+5% DMSO+5% HS-15+5% PEG400 as solvents toa concentration of 3 mg/ml.
Construction of fibrosis model mice: […] C57 mice were randomly divided into […] after 1 week of adaptive feeding: blank group, model group, and 2 treatment groups; with 6 experimental animals in the blank group and 8 experimental animals in each of the remaining 3 groups. Except for the blank group, the remaining three groups were injected intraperitoneally with CCl4 (0.6 ml/kg) in D1, D3, and D5, respectively, and the blank group was injected intraperitoneally with olive oil at the same time. At the same time of modeling, mice in the treatment group were continuously administered by gavage for 6 days, once a day, 2 h after the injection of CC14, and the treatment group was administered orally 30 mg/kg of Compound 2 or Compound 4; mice in the blank group and the model group were given an equal amount of saline by intraperitoneal injection, and the mice were euthanized 24 h after the last administration of CCl4 for test. A portion of the liver tissue was cut to appropriate size and placed in 4% PFA, −80° C. refrigerator for subsequent detection of pathological changes in tissue sample slices, and WB assay, respectively.
Detection methods: 1. After autopsy, liver in situ photos were taken; 2. Liver tissue was retained and lysed using RIPA to extract proteins for WB detection; 3. HE staining as well as Sirius red detection were performed when liver tissue sections were fixed.

[3] = target: hNav1.5 sodium channel (Homo sapiens, UniProt Q14524)
Text: Nav1.5: CHL cells stably expressing hNav1.5 sodium channel was used to record hNav1.5 sodium channel currents by whole-cell membrane clamp technique at room temperature. The glass microelectrodes were made from glass electrode blanks (BF150-86-10, Sutter) by pulling through a puller, and the tip resistance was about 2-5 MΩ after filling the electrode with internal fluid, and the glass microelectrodes were connected to Axopatch 200B (Molecular Devices) membrane clamp amplifier by inserting the glass microelectrodes into the amplifier probe. Clamp voltage and data recording were controlled and recorded by pClamp 10 software via a computer with a sampling frequency of 10 kHz and a filtering frequency of 2 kHz. After obtaining whole-cell recordings, the cells were clamped at −80 mV, given a hyperpolarizing voltage of 200 ms to −120 mV, and then depolarized to −20 mV for 20 ms to evoke a Nav1.5 current. This voltage stimulus was given every 10 s; after the hNav1.5 sodium current was determined to be stabilized (for at least 1 min), begins the dosing process. Concentrations of the sample to be tested were administered continuously starting from low test concentration, and each test concentration was given for 1 min to reach steady state of action or for a maximum of 3 min. A minimum of 3 cells (n≥3) were tested at each concentration of the sample to be tested, and a minimum of 2 cells (n≥2) were tested at each concentration of the positive control.
Extracellular fluid formulation (mM): 140 NaCl, 5 KCl, 1 CaCl2, 1.25 MgCl2, 10 HEPES and 10 Glucose, adjusting the pH to 7.4 with NaOH.
Intracellular fluid formulation (mM): 130 CsF, 10 NaCl, 10 EGTA and 10 HEPES, adjusting the pH to 7.2 with CsOH.

[4] = system: inflammatory factor mRNA in Raw 264.7 cells; test: mRNA levels of inflammatory indicators in TNF-α-induced inflammation model of Raw264.7 cells (Q-PCR); format: cell-based; conditions: 10 ng/ml TNF-α, 1 μM compound, 16 hours
Method: In this embodiment, the effect of compounds on TNF-α-induced inflammation levels in Raw 264.7 cells was analyzed by cell viability combined with inflammatory factor expression levels; cell viability was analyzed by CCK-8 assay; and mRNA expression levels of inflammation-associated indicators were detected by real-time quantitative PCR (Q-PCR) method. Raw 264.7 cells were purchased from ATCC, CCK-8 kit was purchased from Meilunbio, item number MA0218-3, TNF-α was purchased from Merck, item no. GF314.
as §2, with “5*10^4” for “8000”, “12-well” for “96-well”, “10 ng/ml TNF-α” for “1 μg/ml LPS”, “Cellular mRNA was extracted by lysis using Trizol (Yisheng, 10606ES60) and detected by real-time quantitative PCR after reverse transcription,” for “Finally,”, “primers are” for “viability of”, “same as in Table 2.” for “cells was detected using the CCK-8 kit.”

[5] = target: novel coronavirus envelope protein (2-E) ion channel (Severe acute respiratory syndrome coronavirus 2, UniProt P0DTC4); test: Novel coronavirus envelope protein (2-E) ion channel activity test, planar lipid bilayer (BLM); format: biochemical, SARS-CoV-2; conditions: room temperature, 1, 10, 50, 100 μM, read-out: Inhibition against 2-E ion channels IC50
[6] = system: IL-6, IL-1β, CXCL9 mRNA in Raw 264.7 cells; test: mRNA levels of inflammatory indicators in LPS-induced inflammation model of Raw264.7 cells (Q-PCR); format: cell-based; conditions: 1 μg/ml LPS, 1 μM compound, 16 hours
Method: as §1
Experimental methods: first, 5*10^4 cells/well Raw 264.7 cells were placed in 12-well plates and incubated overnight. On the second day, 0.1% DMSO was added to the control cells, 1 μg/ml LPS as well as 0.1% DMSO was added to the model group, 1 μg/ml LPS as well as 1 μM of the compounds (oxyacanthine hydrochloride (oxy), 1, 2, tetrandrine (tet), 3, 4, 6, 58) was added to the treatment group, and the 12-well plates were sterilized and incubated in a constant temperature incubator for 16 hours. Cellular mRNA was extracted by lysis using Trizol (Yisheng, 10606ES60) and detected by real-time quantitative PCR after reverse transcription.

Sequence of novel coronavirus envelope protein (2-E) ion channel (P0DTC4 whole entry, looked up): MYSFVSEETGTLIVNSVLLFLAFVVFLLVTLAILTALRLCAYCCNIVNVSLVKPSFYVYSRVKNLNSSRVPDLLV
Sequence of hNav1.5 sodium channel (Q14524 whole entry): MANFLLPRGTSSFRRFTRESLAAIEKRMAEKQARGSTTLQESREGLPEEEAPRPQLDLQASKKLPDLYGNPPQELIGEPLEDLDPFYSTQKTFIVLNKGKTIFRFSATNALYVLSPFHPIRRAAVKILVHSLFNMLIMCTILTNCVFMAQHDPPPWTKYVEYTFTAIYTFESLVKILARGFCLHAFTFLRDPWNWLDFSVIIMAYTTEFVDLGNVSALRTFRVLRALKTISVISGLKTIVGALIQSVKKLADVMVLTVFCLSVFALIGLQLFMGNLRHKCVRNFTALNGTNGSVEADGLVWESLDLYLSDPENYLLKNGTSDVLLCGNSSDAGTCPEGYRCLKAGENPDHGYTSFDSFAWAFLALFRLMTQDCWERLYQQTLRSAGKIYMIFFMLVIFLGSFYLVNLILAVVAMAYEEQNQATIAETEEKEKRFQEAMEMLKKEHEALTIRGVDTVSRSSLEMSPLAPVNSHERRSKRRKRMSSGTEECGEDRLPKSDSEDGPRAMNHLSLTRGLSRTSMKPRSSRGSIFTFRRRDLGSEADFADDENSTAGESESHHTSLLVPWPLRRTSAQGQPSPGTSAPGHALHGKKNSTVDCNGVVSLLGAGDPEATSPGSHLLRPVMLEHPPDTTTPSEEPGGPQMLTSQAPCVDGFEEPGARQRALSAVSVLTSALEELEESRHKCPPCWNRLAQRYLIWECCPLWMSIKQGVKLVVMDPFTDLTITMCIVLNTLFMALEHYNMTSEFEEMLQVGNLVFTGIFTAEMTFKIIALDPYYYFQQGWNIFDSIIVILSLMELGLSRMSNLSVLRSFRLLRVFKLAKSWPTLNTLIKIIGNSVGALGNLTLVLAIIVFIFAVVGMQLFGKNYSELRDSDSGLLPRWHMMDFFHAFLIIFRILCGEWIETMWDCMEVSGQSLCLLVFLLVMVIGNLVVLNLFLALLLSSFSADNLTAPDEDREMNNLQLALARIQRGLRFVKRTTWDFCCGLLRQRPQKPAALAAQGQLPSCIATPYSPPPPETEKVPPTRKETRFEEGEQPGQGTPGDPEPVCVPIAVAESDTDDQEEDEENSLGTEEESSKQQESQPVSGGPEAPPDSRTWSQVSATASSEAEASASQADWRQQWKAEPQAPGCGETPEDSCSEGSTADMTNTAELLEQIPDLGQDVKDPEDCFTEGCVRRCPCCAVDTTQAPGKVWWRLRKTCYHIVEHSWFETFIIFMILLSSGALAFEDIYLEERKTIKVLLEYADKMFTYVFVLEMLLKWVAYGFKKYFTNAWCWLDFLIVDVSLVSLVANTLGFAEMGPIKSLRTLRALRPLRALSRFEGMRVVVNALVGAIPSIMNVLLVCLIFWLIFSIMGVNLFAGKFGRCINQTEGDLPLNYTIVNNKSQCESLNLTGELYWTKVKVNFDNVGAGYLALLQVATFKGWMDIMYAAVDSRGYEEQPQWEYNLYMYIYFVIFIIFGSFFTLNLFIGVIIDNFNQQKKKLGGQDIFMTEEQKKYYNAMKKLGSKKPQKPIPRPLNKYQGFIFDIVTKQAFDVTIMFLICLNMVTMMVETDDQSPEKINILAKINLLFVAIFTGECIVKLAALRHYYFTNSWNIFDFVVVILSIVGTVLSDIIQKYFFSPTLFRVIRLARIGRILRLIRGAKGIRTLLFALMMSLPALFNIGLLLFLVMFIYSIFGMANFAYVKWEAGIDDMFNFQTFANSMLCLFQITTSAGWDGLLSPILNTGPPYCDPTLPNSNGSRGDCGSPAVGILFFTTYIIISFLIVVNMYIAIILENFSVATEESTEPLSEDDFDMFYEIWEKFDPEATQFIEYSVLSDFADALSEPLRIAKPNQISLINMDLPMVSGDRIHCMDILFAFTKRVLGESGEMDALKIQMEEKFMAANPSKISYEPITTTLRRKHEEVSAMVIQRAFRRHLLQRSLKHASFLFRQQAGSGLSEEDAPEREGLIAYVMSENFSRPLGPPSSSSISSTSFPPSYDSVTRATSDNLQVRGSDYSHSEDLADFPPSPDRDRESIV

Compound | cell viability in LPS-induced inflammation model [1] | liver fibrosis indicators (Collagen1, α-SMA) by WB assay [2] | effect on CCl4-induced acute liver fibrosis in mice [2] | activity against Nav1.5 channels [3] | inhibition of inflammatory factors (mRNA) in TNF-α-induced inflammation model [4] | IC50 [5] | inhibition of inflammatory factors (IL-6, IL-1β, CXCL9 mRNA) in LPS-induced inflammation model [6]
CCCCNC(=O)Oc1ccc2cc1Oc1ccc(cc1)C[C@H]1c3c(cc(OC)c(OC)c3Oc3cc4c(cc3OC)CCN(C)[C@@H]4C2)CCN1C [Compound 2] | did not affect cell viability | down-regulated | alleviated; also recorded: mitigative effect | weakly active | significantly inhibited inflammatory factors; also recorded: significant inhibition | < 10 µM | significantly inhibited inflammatory factors; also recorded: significant inhibition
COc1cc2c3cc1Oc1c(OC)c(OC)cc4c1[C@H](Cc1ccc(cc1)Oc1cc(ccc1C(N)=O)C[C@H]3N(C)CC2)N(C)CC4 [Compound 4] | did not affect cell viability | down-regulated | alleviated; also recorded: mitigative effect | – | significantly inhibited inflammatory factors; also recorded: significant inhibition | < 1 µM | significantly inhibited inflammatory factors; also recorded: significant inhibition
